From ChEMBL document CHEMBL4725292 (J Med Chem, 2020) come the findings set out here.

In data set [1] the target is Bromodomain adjacent to zinc finger domain protein 2A (Homo sapiens, UniProt Q9UIF9). Briefly: Binding affinity to human partial length BAZ2A (M1792 to L1905 residues) expressed in bacterial expression system by BROMOscan assay.
Data set [2] relates to B cell. Briefly: Downregulation of IL-2 secretion in human B cells cocultured with human PBMC at 0.37 to 10 uM preincubated for 1 hr followed by anti-IgM and TCR stimulation and measured after 84 hrs by ELISA. As to conditions: dose microM 0.37-10, time 1.0 hrs. The format is functional, cell-based. (In general: ELISA stands for enzyme-linked immunosorbent assay.)
The target in data set [3] is Transcription initiation factor TFIID subunit 1 (Homo sapiens, UniProt P21675). The data set is described as follows: Binding affinity to human partial length TAF1 bromodomain 2 (D1521 to D1656 residues) expressed in bacterial expression system by BROMOscan assay.
Data set [4] addresses T1, Bromodomain-containing protein 3 (Homo sapiens, UniProt Q15059). The data set is described as follows: Binding affinity to human partial length BRD3 bromodomain 1 (P24 to E144 residues) expressed in bacterial expression system by BROMOscan assay.
The target in data set [5] is T2, Bromodomain testis-specific protein (Homo sapiens, UniProt Q58F21). Briefly: Binding affinity to human partial length BRDT bromodomain 1 (N21 to E137 residues) expressed in bacterial expression system by bromoscan assay.
Data set [6] concerns Blood. The data set is described as follows: Inhibition of LPS-induced MCP1 production in human whole blood preincubated for 30 mins followed by LPS addition and measured after overnight incubation by mesoscale assay. It counts as functional, tissue-based.
The target of data set [7] is T1, Bromodomain-containing protein 3. The data set is described as follows: Binding affinity to human partial length BRD3 bromodomain 2 (G306 to P416 residues) expressed in bacterial expression system by BROMOscan assay.
The subject of data set [8] is Blood. The data set is described as follows: Inhibition of LPS-induced TNFalpha production in human whole blood preincubated for 30 mins followed by LPS addition and measured after overnight incubation by mesoscale assay. The format is functional, tissue-based.
Data set [9] concerns B cell. The data set is described as follows: Downregulation of IL-17F secretion in human B cells cocultured with human PBMC at 0.37 to 10 uM preincubated for 1 hr followed by anti-IgM and TCR stimulation and measured after 84 hrs by ELISA. It counts as functional, cell-based. The settings on record: dose microM 0.37-10, time 1.0 hrs.
Data set [10] can be described thus: Intrinsic clearance in rat hepatocytes at 0.5 uM measured up to 60 mins by LC-MS/MS analysis. As to conditions: 1 h. The format is ADME, cell-based, Hepatocyte.
The subject of data set [11] is B cell. The data set is described as follows: Downregulation of IL-6 secretion in human B cells cocultured with human PBMC at 0.37 to 10 uM preincubated for 1 hr followed by anti-IgM and TCR stimulation and measured after 84 hrs by ELISA. The format is functional, cell-based. The settings on record: dose microM 0.37-10, time 1.0 hrs.
The nature of data set [12]: Inhibition of LPS-induced MCP1 production in PBMC (unknown origin). It counts as functional, tissue-based.
The next data set relates to THP-1. The data set is described as follows: Antiproliferative activity against human THP-1 cells after 72 hrs by cell titer glo assay. The format is functional, cell-based. As to conditions: THP-1, 72 h.
Data set [13] has as its target Bromodomain-containing protein 2 (Homo sapiens, UniProt P25440). Briefly: Binding affinity to human partial length BRD2 bromodomain 1 long isoform (K71 to N194 residues) expressed in bacterial expression system by BROMOscan assay.
Data set [14] addresses T3, Transcription intermediary factor 1-alpha (Homo sapiens, UniProt O15164).
T3 sequence (O15164 whole entry): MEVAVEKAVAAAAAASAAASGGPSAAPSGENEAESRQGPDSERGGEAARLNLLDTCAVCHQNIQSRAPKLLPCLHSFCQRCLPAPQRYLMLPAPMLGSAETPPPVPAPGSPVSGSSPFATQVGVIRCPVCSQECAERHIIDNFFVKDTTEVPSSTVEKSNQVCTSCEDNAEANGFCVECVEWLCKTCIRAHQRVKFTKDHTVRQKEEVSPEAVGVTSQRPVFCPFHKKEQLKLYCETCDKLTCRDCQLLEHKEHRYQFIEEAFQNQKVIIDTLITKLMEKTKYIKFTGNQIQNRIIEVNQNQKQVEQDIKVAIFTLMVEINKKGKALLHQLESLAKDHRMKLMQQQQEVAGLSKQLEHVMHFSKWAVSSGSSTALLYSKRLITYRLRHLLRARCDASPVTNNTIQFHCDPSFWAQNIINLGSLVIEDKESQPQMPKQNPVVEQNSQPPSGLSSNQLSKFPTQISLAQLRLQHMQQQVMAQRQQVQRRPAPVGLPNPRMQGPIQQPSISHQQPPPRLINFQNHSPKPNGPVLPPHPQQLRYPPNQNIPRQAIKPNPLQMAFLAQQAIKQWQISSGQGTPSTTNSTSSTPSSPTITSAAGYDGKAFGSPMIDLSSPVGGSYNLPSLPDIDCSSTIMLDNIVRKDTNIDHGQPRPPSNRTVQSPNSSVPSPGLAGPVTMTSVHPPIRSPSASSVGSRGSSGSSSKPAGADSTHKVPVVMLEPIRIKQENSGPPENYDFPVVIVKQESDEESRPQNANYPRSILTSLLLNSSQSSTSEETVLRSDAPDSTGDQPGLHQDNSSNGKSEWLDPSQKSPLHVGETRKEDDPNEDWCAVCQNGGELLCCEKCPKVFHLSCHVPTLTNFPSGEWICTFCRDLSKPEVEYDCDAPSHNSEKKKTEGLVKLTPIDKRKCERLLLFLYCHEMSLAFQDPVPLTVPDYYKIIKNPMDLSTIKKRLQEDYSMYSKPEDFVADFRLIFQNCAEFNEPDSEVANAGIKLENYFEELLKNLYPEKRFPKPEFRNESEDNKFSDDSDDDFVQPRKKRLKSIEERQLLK
Briefly: Binding affinity to human partial length TRIM24 (P790 to P977 residues) expressed in bacterial expression system by BROMOscan assay.

Data set [15] in a line: Permeability of the compound in pH 7.4 phosphate buffer measured after 3 hrs by artificial membrane permeability assay based HPLC analysis. The format is ADME. The settings on record: PAMPA, pH 7.4, read-out: permeability. On the technique in general: PAMPA measures passive passage across an artificial lipid membrane.
The target in data set [16] is T1, Bromodomain-containing protein 3. Briefly: Binding affinity to full length BRD3 BD2 in human HuT78 cell lysates incubated for 45 mins by liquid chromatography-mass spectrometry based chemoproteomic binding assay. It counts as subcellular.
In data set [17] the target is T2, Bromodomain testis-specific protein. The data set is described as follows: Binding affinity to human partial length BRDT bromodomain 2 (K250 to E382 residues) expressed in bacterial expression system by bromoscan assay.

Calls of active or inactive are those of the source. The rule behind the calls is not given here.

T1 sequence (Q15059 whole entry, the tested form may be a part): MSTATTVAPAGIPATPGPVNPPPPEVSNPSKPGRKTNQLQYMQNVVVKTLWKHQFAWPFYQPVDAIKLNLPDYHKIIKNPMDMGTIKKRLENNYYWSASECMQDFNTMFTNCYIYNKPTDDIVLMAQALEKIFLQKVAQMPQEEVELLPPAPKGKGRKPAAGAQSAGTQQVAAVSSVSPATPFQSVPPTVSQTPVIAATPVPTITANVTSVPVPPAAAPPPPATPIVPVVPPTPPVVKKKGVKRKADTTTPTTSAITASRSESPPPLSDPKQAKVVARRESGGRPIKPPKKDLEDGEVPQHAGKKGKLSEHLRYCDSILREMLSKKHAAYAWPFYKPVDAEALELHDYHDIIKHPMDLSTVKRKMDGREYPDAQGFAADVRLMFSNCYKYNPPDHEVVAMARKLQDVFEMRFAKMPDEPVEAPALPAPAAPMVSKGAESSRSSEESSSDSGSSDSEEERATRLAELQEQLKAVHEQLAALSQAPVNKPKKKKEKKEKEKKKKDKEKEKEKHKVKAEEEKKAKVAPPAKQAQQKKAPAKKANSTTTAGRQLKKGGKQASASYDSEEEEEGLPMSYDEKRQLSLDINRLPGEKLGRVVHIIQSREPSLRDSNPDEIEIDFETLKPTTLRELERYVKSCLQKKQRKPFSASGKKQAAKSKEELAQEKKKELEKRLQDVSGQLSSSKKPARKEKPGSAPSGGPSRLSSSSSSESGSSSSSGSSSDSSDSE
Sequence of Bromodomain adjacent to zinc finger domain protein 2A (Q9UIF9 whole entry, the tested form may be a part): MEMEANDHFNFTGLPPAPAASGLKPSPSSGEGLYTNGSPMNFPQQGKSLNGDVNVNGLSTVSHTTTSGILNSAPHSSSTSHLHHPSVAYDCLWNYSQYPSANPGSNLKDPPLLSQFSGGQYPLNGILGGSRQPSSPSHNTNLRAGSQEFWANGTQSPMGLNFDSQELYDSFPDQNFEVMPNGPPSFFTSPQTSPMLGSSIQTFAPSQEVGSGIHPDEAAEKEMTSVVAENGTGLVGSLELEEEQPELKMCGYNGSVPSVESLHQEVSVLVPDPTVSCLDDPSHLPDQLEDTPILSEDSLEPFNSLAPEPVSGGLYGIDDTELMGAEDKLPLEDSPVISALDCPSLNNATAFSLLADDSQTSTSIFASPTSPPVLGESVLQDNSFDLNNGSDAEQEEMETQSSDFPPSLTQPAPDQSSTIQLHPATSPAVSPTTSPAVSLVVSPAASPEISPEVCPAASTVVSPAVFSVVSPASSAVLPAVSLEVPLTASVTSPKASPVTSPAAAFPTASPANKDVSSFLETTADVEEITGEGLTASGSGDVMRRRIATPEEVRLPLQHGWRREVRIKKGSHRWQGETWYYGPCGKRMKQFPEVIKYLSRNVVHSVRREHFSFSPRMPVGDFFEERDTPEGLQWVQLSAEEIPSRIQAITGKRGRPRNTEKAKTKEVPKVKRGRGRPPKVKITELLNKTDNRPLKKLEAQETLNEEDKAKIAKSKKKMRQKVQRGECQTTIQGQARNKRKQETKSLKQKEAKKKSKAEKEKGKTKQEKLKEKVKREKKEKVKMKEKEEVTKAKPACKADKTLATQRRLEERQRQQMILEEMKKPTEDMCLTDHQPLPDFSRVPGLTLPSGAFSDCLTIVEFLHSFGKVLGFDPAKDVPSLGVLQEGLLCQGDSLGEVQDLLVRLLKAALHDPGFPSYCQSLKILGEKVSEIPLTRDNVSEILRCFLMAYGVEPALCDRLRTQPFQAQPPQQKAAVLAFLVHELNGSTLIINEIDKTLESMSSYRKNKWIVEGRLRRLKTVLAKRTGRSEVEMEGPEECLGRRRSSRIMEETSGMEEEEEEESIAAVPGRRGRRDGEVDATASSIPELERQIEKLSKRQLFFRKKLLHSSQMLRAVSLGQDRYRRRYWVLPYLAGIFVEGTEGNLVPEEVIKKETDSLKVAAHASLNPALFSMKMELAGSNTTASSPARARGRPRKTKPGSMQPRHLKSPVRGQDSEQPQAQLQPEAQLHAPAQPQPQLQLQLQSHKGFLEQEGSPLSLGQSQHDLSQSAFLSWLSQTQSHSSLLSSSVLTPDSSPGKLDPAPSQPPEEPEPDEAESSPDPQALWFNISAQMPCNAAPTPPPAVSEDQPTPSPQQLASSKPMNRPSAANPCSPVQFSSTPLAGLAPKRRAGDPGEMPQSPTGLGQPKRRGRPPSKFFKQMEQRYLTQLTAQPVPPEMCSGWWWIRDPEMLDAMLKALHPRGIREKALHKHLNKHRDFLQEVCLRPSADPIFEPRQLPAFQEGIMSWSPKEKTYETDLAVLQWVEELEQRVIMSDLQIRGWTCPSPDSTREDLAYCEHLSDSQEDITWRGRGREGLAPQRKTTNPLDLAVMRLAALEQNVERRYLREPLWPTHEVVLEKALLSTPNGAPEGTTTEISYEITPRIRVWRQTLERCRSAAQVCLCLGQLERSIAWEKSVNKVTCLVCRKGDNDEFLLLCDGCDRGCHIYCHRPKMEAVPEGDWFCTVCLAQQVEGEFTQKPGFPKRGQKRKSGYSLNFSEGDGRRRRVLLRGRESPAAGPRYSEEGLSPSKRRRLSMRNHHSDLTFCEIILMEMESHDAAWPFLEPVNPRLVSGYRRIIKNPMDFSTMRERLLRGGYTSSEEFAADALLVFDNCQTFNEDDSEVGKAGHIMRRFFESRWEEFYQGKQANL
Sequence of Bromodomain-containing protein 2 (P25440 whole entry, the tested form may be a part, canonical isoform): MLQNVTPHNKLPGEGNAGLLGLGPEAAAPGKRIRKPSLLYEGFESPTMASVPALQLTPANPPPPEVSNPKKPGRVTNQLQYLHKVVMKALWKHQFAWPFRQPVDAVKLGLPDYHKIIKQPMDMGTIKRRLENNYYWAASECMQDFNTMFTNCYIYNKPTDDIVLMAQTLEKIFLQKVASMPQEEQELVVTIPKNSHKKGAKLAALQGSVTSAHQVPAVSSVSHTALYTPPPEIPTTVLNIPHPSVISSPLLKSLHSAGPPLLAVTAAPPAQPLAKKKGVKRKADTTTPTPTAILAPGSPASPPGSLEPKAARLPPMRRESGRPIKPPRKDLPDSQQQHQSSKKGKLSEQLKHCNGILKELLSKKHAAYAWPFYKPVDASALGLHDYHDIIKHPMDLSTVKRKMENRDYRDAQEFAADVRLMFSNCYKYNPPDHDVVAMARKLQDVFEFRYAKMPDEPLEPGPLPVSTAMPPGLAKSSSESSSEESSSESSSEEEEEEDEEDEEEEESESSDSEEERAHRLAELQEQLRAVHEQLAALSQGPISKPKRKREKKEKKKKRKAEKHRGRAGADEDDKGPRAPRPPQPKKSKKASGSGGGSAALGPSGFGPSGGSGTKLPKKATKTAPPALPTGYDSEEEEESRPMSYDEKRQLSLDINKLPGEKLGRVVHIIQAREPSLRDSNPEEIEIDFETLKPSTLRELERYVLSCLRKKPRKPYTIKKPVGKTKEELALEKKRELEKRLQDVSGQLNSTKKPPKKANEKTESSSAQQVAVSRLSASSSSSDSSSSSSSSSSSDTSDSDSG

As to `Cc1cc2c(-c3ccco3)cnc(N[C@@H]3CCN(C)C[C@H]3C(=O)NC3CCCCC3)c2[nH]c1=O` [GSK789], the Kd (usually the concentration at which binding is half-saturated) in data set [1] was 15800 nM; in [3], 50.1 nM; in data set [4], 15.8 nM; in [5] it was 20 nM; in data set [7], 20000 nM; in [13] it was 20 nM. In addition, the equilibrium dissociation constant (Kd) was 20000 nM in data set [14], 6310 nM in data set [16] and 20000 nM in data set [17]. Also, the result in the data set on B cell [2], with B cell [9] and in the data set on B cell [11] was Active. Also, the IC50 – broadly, the concentration at which inhibition is half-maximal – in the data set with Blood [6] is 670 nM; in the data set on Blood [8], 870 nM; in data set [12], 20 nM; in the data set with THP-1, 158 nM. Further, the CLH in [10] worked out at 14.88 mL/min/g. For the same compound, in data set [15], the Papp at 3 h was 19 ×10⁻⁶ cm/s.
